{
  "source": "patent US11110080B2",
  "about": "“Small molecule inhibitors of bacterial efflux pumps and methods of using same” (The Regents of the University of Colorado, a body Corporate, priority 2017, dated 2021)",
  "format_in_all_cases": "cell-based, Salmonella enterica serovar Typhimurium",
  "key": {"[1]": {"system": "S.Tm efflux pumps", "assay": "Hoechst 33342 accumulation assay", "description": "Efflux pumps (EPs) represent a key pathogen virulence strategy to protect against host antimicrobials as well as therapeutic antibiotics. […] To uncover putative EPMs within our collection of hits, 58 repurchased compounds were screened in a Hoechst accumulation assay. Bacteria were incubated with Hoechst 33342, a dye which fluoresces when bound to DNA.\nHoechst accumulation assays were performed essentially as described in the literature. Briefly, overnight Salmonella cultures were washed 3 times in PBS and diluted to an OD of 0.1 in PBS with 2.5 μM Hoechst 33342 in the presence of the indicated concentrations of compounds. Fluorescence was monitored on a Biotek Synergy 2 with a 360/40 nm excitation filter and 460/40 nm emission filter. The maximum Hoechst fluorescence over 60 minutes of incubation was normalized to the signal from the equivalent number of heat-killed bacteria, after subtraction of autofluroescent signal determined from compound incubated in the absence of bacteria. Curve fitting to determine EC50s was performed using GraphPad Prism."}, "[2]": {"system": "S.Tm efflux pumps", "assay": "Nile Red efflux assay", "from_the_text": "Because Hoechst and other dyes commonly used to assess efflux bind cellular components, direct measurement of efflux is not possible using these methods; instead, the Hoechst assay measures dye accumulation, the net result of entry and efflux. Further, the slow off-rate of Hoechst entails that efflux pumps have no effect on dye already bound to DNA. As a result, compounds which increase Hoechst accumulation may actually enhance dye entry by altering porins or disrupting the membrane. To more specifically measure efflux pump activity, a second technique was employed using the dye Nile Red, a lipophilic membrane-partitioning dye which fluoresces in nonpolar environments. Because Nile Red is not known to bind cellular components, to directly observe efflux cells were preloaded with the dye in the absence of glucose to reduce efflux pump activity (FIG. 7A). Upon addition of glucose, bacteria rapidly effluxed Nile Red and fluorescence returned to baseline levels (FIG. 7B, top panel). […] The initial measured fluorescence was lower for DMSO-treated cells (upper dotted line) than for PAβN-treated cells due to glucose-independent efflux during sample preparation (FIG. 8A). Next, it was determined whether efflux pump activity is restored after removal of PAβN. Bacteria were incubated with compound for 15 minutes, pelleted and resuspended in buffer lacking compound, and then stimulated with glucose (FIGS. 7C, 7E).\nNile Red assays were adapted from an established protocol. Briefly, overnight Salmonella cultures were grown in Mueller-Hinton cation-adjusted broth (Sigma), washed, and resuspended at an OD600 of 2.0. Cells were incubated in 10 μM Nile Red for 3 hours at 37° C. with aeration, then moved to room temperature for 1 hour. After pelleting at 2000× g, dye-loaded cells were aliquoted and combined with compound at the indicated concentrations. Two hundred microliters was loaded into 96-well black walled plates (Greiner) and read using a Varioskan Flash Multimode Reader with 540 nm excitation and 625 nm emission filters. We observed that during loading into plates (˜20 minutes), bacteria were able to efflux Nile Red even in the absence of glucose (FIG. 8A). To activate efflux, glucose was added to a final concentration of 2 mM. In some experiments, bacteria were treated with drug for 15 minutes, pelleted at 16,000×g, resuspended in fresh buffer, and stimulated with 2 mM glucose. All wash and incubation steps were performed in PBS with 1 mM MgCl2; incubations were performed in glass tubes to reduce adhesion of Nile Red."}, "[3]": {"system": "S.Tm efflux pumps", "assay": "Nile Red efflux assay", "settings": "20 minutes incubation in 75 μM"}, "[4]": {"system": "extracellular S.Tm grown in MHB broth", "assay": "Broth activity assay (growth / MIC in Mueller Hinton Broth)", "settings": "Salmonella enterica, three Salmonella strains SL1344, MAR1, S10801", "description": "(§1) Overnight Salmonella cultures were washed 3 times in PBS and diluted to an OD of 0.01 in Mueller Hinton Broth in 96-well flat bottom plates. Compound was added using a pin tool (CyBio) or manually, yielding a final concentration of no more than 1% DMSO. Plates were grown at 37° C. shaking and OD600 was monitored using a BioTek Eon incubator shaker microplate absorbance reader. For experiments in defined media, bacteria were grown in M9 minimal media supplemented with 100 mM Tris pH 7.4, 0.35% glycerol, 0.002% histidine, 10 mM MgCl2, and 0.1% casamino acids. Where indicated, media was supplemented with 5 μg/ml polymyxin B or 0.2 mM H2O2. For experiments with LL-37, bacteria were grown in M9 minimal media supplemented with 0.4% dextrose, 0.004% histidine, 1 mM MgSO4, and 5 μg/ml LL-37. For checkerboard assays, MIC was defined as the concentration at which no growth was visually observed."}, "[5]": {"system": "S.Tm wild-type SL1344, MAR1 and S10801", "assay": "microbe, parasite or virus in culture", "settings": "MAR1 and S10801", "description": "Increased expression or function of efflux pumps often contributes to clinical multidrug resistance. Therefore, whether the EPMs re-sensitize two multidrug resistant strains of S.Tm to tetracycline was tested. Tetracycline is an antibiotic exported by AcrAB. The MAR1 strain is derived from wild-type SL1344 was selected by exposure to tetracycline, and has increased expression of the AcrAB efflux pump. S10801 is an MDR strain isolated from the mesenteric lymph node of a septic calf and is resistant to tetracycline, ampicillin, chloramphenicol, nalidixic acid, and triple sulfa. The basis of multi-drug resistance in this strain is unknown.\nas §1"}, "[6]": {"system": "S.Tm", "assay": "Swimming assay in soft agar (proton motive force)", "settings": "50 mM, 10 μl on disk (500×, 125×, ~62.5× the MIC for EPM30, EPM35, EPM43)", "description": "One way to inhibit efflux pumps is to disrupt the proton motive force, which is required for transport by some EPs. […] Bacteria were injected into the center of 0.25% agar plates, and 10 μl of compound was added to paper disks on the periphery. […] Also ampicillin and rifampicin were tested. We plotted the halo radius versus the concentration as the fold above the MIC (FIG. 9G). […] Next, it was determined whether PAβN inhibited swimming; PAβN is thought to disrupt membranes over long incubations. […] Finally, the EPMs at […] were tested (FIGS. 9D-F).\nSaturated overnight cultures were diluted to an OD600 of 0.01 in LB and 1 μL was injected into the center of low agar (0.25%) LB plates. Ten microliters of the indicated compounds were added to sterilized Whatman paper disks (diameter 0.7 cm) placed equidistant from the plate center."}},
  "note": "“Also recorded” adds a separate entry of the source.",
  "data": [
    {"smiles": "CC(C)c1nc(NC(=N)N)sc1Br", "note": "[EPM30]", "values": [
      {"measurement": "Hoechst assay EC50 relative to PAβN", "setting": "[1]", "value": "lower than that of PAβN"},
      {"measurement": "Hoechst accumulation / fluorescence", "setting": "[1]; wild-type S.Tm, 60 minutes", "value": "increased S.Tm accumulation of Hoechst in a dose-dependent manner; also recorded: fluorescence comparable to that of PAβN"},
      {"measurement": "glucose-activated efflux of Nile Red", "setting": "[2]; 75 μM", "value": "fully inhibited efflux"},
      {"measurement": "Nile Red efflux after washout of compound", "setting": "[2]; 15 minutes with compound, washed, then glucose", "value": "partially restored efflux; also recorded: partially restored Nile Red export"},
      {"measurement": "Nile Red fluorescence in the absence of glucose (basal loss)", "setting": "[2]; no glucose", "value": "immediate reduction in fluorescence"},
      {"measurement": "bacterial integrity and viability", "setting": "[3]", "value": "remain intact and viable"},
      {"measurement": "MIC", "setting": "[4]", "value": 100, "unit": "µM"},
      {"measurement": "sensitivity of MDR S.Tm to tetracycline", "setting": "[5]", "value": "not"},
      {"measurement": "halo in swimming assay", "setting": "[6]", "value": "formed a halo"}
    ]}
  ]
}
